Values of other authors as cited in patent US20250360174A1, “ENGINEERED BACTERIA, ENGINEERED BIOFILMS, AND LIVING MATERIALS BASED ON BACILLUS SUBTILIS” (EAST CHINA UNIVERSITY OF SCIENCE AND TECHNOLOGY, priority 2024, published 2025).

Tested on: RAW264.7 cells

## O[C@H]1[C@@H]2OC[C@H](O[C@H]1O)[C@H]2O [L-AHG, 3,6-anhydro-α-L-galactose]
  anti-inflammatory activity: has been shown to have anti-inflammatory activity
